Measurements from patent US10220025B1, “Self-emulsifying formulation of CARP-1 functional mimetics” (Florida A&M University, priority 2016, dated 2019).

Legend:
[1] = tested on: parental and drug-resistant TNBC and SKBR-3 cells; test: scratch/wound healing cell migration assay; assay type: cell-based; settings: FIGS. 11B, 11C, 12A, 12B, 13A, 13B
Experimental: The TNBC cells migration in the absence or presence of CFMs was measured by the “scratch/wound healing” assay. Cells were seeded in a 6-well plate (˜10,000 cells/well), and when attached, a scratch was created in the cell monolayer using sterile pipette tip. The cells were then allowed to continue growing in the absence (Control) or presence of noted dose of each of the agents for indicated time periods. The cells were photographed at the beginning and at regular intervals during the treatment period, and the images from control cells were compared with the treated cells to determine the migration of the cells essentially as described before [Liang C C, Park A Y, Guan J L In vitro scratch assay: a convenient and inexpensive method for analysis of cell migration in vitro. Nat Protoc. 2007; 2:329-33]. The photomicrographs of the cells were recorded under different magnifications utilizing Zeiss microscope with attached 35 mm camera.

[2] = tested on: drug-resistant TNBC cells; test: MTT viability assay, drug-resistant TNBC sublines (not singled out); assay type: cell-based; settings: 12 h; FIGS. 4A-4E
Experimental: Human TNBC MDA-MB-468 and MDA-MB-231, and mouse TNBC 4T1 cells were cultured in the chronic presence (>10 months) of Doxorubicin. The parental, wild-type cells were initially treated with 200 nM Doxorubicin for 2-3 weeks, followed by escalation to 400 nM, 1 μM, and 2 μM doses over a period of 3-4 weeks for each dose till resistance developed and the cells became well adapted to growth in […] of Doxorubicin for their routine culture. In the case of Cisplatin however, the human TNBC MDA-MB-468 and MDA-MB-231 were initially cultured in continuous presence of 1 μM Cisplatin for 3-4 weeks, and the dose was escalated to 1.5 μM and 3 μM over periods of 3-4 weeks for each dose till resistance developed and cells became adapted to routine culture in 3 μM dose. Subsequent, routine maintenance of the resistant cells in the presence of the respective drug was continued and multiple, resistant sublines for each of the TNBC cells were isolated and characterized for their growth inhibitory (GI)50 dose of respective therapeutic by the MTT-based viability assays as below.

[3] = tested on: CSC-enriched populations from xenografts of parental and ADR-resistant MDA-MB-231 TNBC cells; test: MTT viability of tumor-derived CSC-enriched cells; assay type: cell-based, human; settings: dose-dependent; FIG. 15C
Experimental: The CSC-enriched cells were then treated with ADR, CFM-4.16, or a combination of both for noted dose and time. The cell viabilities were determined by MTT-based assay as in FIGS. 3A-3C, and plotted relative to the MTT values for the respective untreated controls. The histogram columns in panels B and C represent means of three and four independent experiments, respectively; bars, S.E. α, αα, β, ββ, ^*,**,#,##p=<0.03 relative to respective cells treated with ADR+CFM-4.16.
The TNBC cells were obtained from tumors derived from parental and drug-resistant cells or from a two-dimensional culture plate with ˜70-80% confluence. The cells were washed twice in 1×PBS and trypsinized following established protocols. […]
It was next clarified whether and to the extent CFM-4.16 was able to interfere with growth of mammospheres derived from parental and drug-resistant TNBC-cells. […] The growing mammosphere cultures were then exposed to CFM-4.16, and the viabilities of untreated and treated cultures were determined by an MTT-based assay. […]

[4] = tested on: MDA-MB-231 TNBC cells, wild type; test: MTT viability assay, parental MDA-MB-231; assay type: cell-based, human; settings: 10 μM dose
Experimental: (§1) In vitro inhibition of cell growth was assessed by MTT (3-[4, 5-dimethyltiazol-2-yl]-2.5-diphenyl tetrazolium bromide) reagent. Cells (5×10^3) were seeded in a 96-well culture plate and subsequently treated with respective agents at different concentrations as mentioned. Control cells were treated with 0.1% DMSO in culture medium. After treatment, the cells were incubated with 1 mg/ml of MTT reagent at 37° C. for 2-4 hours and then MTT was removed and 50 μL of DMSO was added, followed by colorimetric analysis using a multi-label plate reader at 560 nm (Victor3; PerkinElmer, Wellesley, Mass., USA).

MDA-MB-231 TNBC cells = settings: 470 mg/kg, Qd 1-19, iv, DMSO plus cremophor; not shown
[5] = tested on: CARP-1, cyclin B1, cleaved PARP, caspase-8, p38, MKK4, JNK1/2 in TNBC cells; test: Western blot, apoptosis and SAPK signaling; assay type: cell-based
Experimental: For protein expression analysis, Western blot (WB) experiments were performed according to the standard procedures. The cells were either untreated or treated with various agents either alone or in combinations as indicated. Following treatment durations, the cells were lysed in cell lysis (10×) buffer (#9803; cell signaling) containing 0.1% of protease and phosphatase inhibitor cocktail (Sigma) for 20 min at 4° C. The lysates were centrifuged at 14,000 rpm at 4° C. for 15-20 min to remove debris. Protein concentrations of whole cell lysates were determined using the Protein Assay Kit. Supernatant proteins, 50-100 μg from each sample, were separated by SDS-polyacrylamide gel electrophoresis (SDS-PAGE) and transferred to polyvinylidene difluoride (PVDF) membrane (Bio-rad, Hercules, Calif.) by standard procedures. […] The antibody-bound proteins were visualized by treatment with the chemiluminescence detection reagent according to manufacturer's instructions, followed by exposure to X-ray film (Denville Scientific Inc.). The same membranes were re-probed with the anti-β-actin or anti-α-tubulin antibody, which was used as an internal control for protein loading.

HUVECs = test: in vitro tubule formation (angiogenesis) assay; assay type: cell-based, human; settings: 12 hours; FIG. 11A
Experimental: The growth of tubules was monitored over a period of 12 hours. The cells growth in the scratch assay was recorded by photography. Representative photomicrographs of control and treated cells are presented.
It was next investigated whether CFM-4.16 inhibited TNBC cell migration and growth as colonies in soft agar and 3-dimensional cultures in vitro. In addition, an in vitro tubule formation assay was conducted to determine anti-angiogenic properties of CFM-4.16. […] Moreover, treatments with CFM-4 or CFM-4.16 prevented the parental as well as drug (ADR- or cisplatin-) resistant TNBC sublines and the parental and Herceptin-resistant, Her-2-positive SKBR-3 cells from growing in the areas of wound caused by a scratch (FIGS. 11B, 11C, 12A, 12B, 13A, and 13B).

solubility observations = assay type: physicochemical
[6] = tested on: MDA-MB-468 TNBC cells, wild type; test: MTT viability assay, parental MDA-MB-468; assay type: cell-based, human
Experimental: as §1

O=C1N(Cc2ccccc2Cl)c2ccccc2C12NN=C(c1cccc(Cl)c1)S2 (stereo not shown) [CFM-4.16]
growth of cells in the areas of wound caused by a scratch [1]: prevented | growth of ADR or Cisplatin-resistant TNBC sublines [2]: effectively inhibited growth | viabilities of CSC enriched TNBC cells vs untreated [3]: significant loss of viabilities | inhibition / loss of cell viability [4]: 80-100% | tumor growth inhibition (T/C) (MDA-MB-231 TNBC cells): failed to yield a therapeutic T/C values | apoptosis and SAPK markers in parental and drug-resistant TNBC cells ([5]; FIGS. 5A-5C, 6A-6D): activated pro-apoptotic SAPKs p38α/β and JNK1/2, caspase-8, while causing cleavage of PARP and decline in mitotic cyclin B1 levels | activation of pro-apoptotic SAPKs in comparison with CFM-4 ([5]; parental and resistant TNBC cells, FIG. 5C): rather robust activation of both the pro-apoptotic SAPKs | tubule formation by HUVECs compared with untreated control (HUVECs): rather robust disruption in tubule integrity | aqueous solubility (solubility observations): poor aqueous solubility | behaviour of DMA solution on addition of water (solubility observations): immediately got precipitated | lipid solubility (solubility observations): good lipid solubility | inhibition / loss of cell viability ([6]; 10 μM dose): 80-100% | inhibition of viability compared with CFM-4 ([6]; 20 μM, 24 h, FIG. 3A): greater inhibition of viability
